Measurements as given in patent US20210121438A1, “METHODS FOR TREATING OR PREVENTING CONFORMATION DISEASES AND METHODS FOR DRUG SCREENING” (GARAGE BRAIN SCIENCE CO., LTD, priority 2018, published 2021).
Where a SMILES comes first, the peptide text is derived from it. The star is where a group is joined. Cbz = O=C(OCc1ccccc1)*

Columns and labels:
Format in all cases: cell-based
[1] = test system: TDP-43-mediated CFTR exon 9 skipping; assay: Alternative splicing assay (in vivo splicing, CFTR minigene); details: EGCG
Method: Alternative Splicing Assay: TDP-43-mediated CFTR exon 9 skipping assays were performed as previously described. Briefly, cells were cotransfected with TDP-43 plasmid, hCF-(TG)13(T)5 minigenes and the indicated plasmids, including VCP/p97 wt, VCP/p97 QQ, HSPB1, lamin A or progeria, or HSPB1 siRNA. Total RNA of transfectanted cells was isolated by TRIzol reagent (Invitrogen), and RT-PCR was carried out by Superscript III (Invitrogen) using specific primers to amplify exons 8-10 of CFTR according to the manufacturer's protocol. The relative amounts of cDNA were validated on 1.3% agarose gels. […]

[2] = test system: GFP-TDP-43-IIPLD inclusion-expressing 293T cells; assay: TDP-43-IIPLD misfolded aggregates in transfected 293T cells (microscopy)
Method: Cell Culture and Drug Treatment: 293T cells were used throughout the experimental studies. 293T cells were grown in Dulbecco's modified Eagle's medium (DMEM)/F12, which was supplemented with 10% fetal bovine serum, 1% penicillin/streptomycin and 1% L-glutamate. Primary cultures of rat hippocampal neurons were prepared from embryonic day 17 rat embryos as previously described by (Wang et al, TDP-43, the signature protein of FTLD-U, is a neuronal activity-responsive factor. J. Neurochem. 105, 79T-806 (2008)). All procedures for handling the rat were carried out in accordance with the guidelines approved by the Institutional Animal Care and Utilization Committee, Academia Sinica. Hippocampal cells were plated on poly-1-lysine-coated coverslides at low density (10,000 cells per cm2) and cultured in the neurobasal medium/B27 (Invitrogen). The 293T cells were transfected using the calcium phosphate protocol according to the manufacturer's instructions and as previously described by Wang et al. (Wang et al., ProcNatlAcadSci USA. 99, 13583-13588 (2002). All of the plasmid constructs were described in Wang et al., Nature Communication, 2012). 293T cells (1×10^5) were seeded in each well of a six-well plate and incubated overnight in a 37° C. incubator with 5% CO2. To determine the effects of off-pathway stabilizers on the reduction of pathological-like aggregates, the cells were treated with baicalein and EGCG for 12, 24, or 48 h with the indicated concentrations (25 or 50 μM).
GFP-TDP-43 pathological-like (GFP-TDP-43-IIPLD) inclusion-expressing 293T cells were treated with or without 50 μM baicalein for 12 h following microscopic analysis and Western blotting validation. […] (FIG. 2c).

TDP-43 polymers = molecular target: T1, TDP-43 polymers (Homo sapiens, UniProt Q13148); assay: Western blotting of TDP-43 polymers in nuclear, cytosolic and urea fractions; details: EGCG-treated cells
T1 construct: endogenous in cells; host or cells: 293T
T1 sequence (Q13148 whole entry): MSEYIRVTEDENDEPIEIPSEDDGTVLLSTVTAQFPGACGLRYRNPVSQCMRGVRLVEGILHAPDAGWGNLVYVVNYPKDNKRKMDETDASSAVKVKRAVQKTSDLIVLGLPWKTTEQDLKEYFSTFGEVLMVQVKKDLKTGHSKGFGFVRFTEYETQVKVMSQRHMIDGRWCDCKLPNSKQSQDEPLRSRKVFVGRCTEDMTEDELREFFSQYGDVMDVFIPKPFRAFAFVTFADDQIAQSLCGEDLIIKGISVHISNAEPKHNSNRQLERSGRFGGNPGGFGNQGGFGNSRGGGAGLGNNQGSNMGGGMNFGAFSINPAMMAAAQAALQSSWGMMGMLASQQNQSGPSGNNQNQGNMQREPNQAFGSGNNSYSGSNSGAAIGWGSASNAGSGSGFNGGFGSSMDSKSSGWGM
Method: Solubility Assay of TDP-43 and p53: Cells with or without transfection of TDP-43-FL or TDP-43-Q303P were lysed with RIPA buffer (50 mM Tris, 150 mM NaCl, 1 mM EDTA, 1% NP-40, pH 7.4), and the lysate was further fractionated by centrifugation at 16,000 g for 5 min at 4° C. The insoluble pellets were then dissolved in 8 M urea/50 mM Tris (pH 8.0). The proteins were identified by Western blotting using a polyclonal TDP-43 antibody or a monoclonal p53 antibody.
TDP-43 proteinopathies in FTLD/ALS with the VCP/97 mutation R155H have been characterized. The VCP/97 mutation R155H alters the functions of VCP/97, redistributes TDP-43 to the cytosol, and leads to form-insoluble aggregates of TDP-43.

[3] = test system: p53 aggregates in 293T cells; assay: p53 aggregates in 293T cells / p53 strains (immunofluorescence with p53 antibody)
Method: Immunohistochemistry: Fluorescence staining was performed as described previously (Wang et al., 2012). Cells were transfected with or without plasmids or siRNAs and grown for 24 to 48 hr. Cells were fixed with 3.7% paraformaldehyde in PBS at RT for 15 min and then permeabilized with 0.1% Triton X-100. The fixed cells were incubated with primary antibodies at RT for 2 hr followed by incubation with Cy2- or Cy3-labeled secondary antibodies (Molecular Probes). Slides were mounted using Vectashield DAPI H-1200 (Vector). Cellular fluorescence images were collected using an LSM710 META laser-scanning confocal microscope (Zeiss).
We observed a striking degree of heterogeneity among p53 aggregates in the cytosol of 293T cells by immunofluorescence with a p53 antibody, including long fibers (5-10 μm), short fibers (1.6-3.2 μm) and punctate aggregates (0.5-1 μm in diameter) (FIG. 16a, arrows). The length of the p53 fibers and p53 aggregates were analyzed (FIG. 16b). […] To determine whether these heterogeneous p53 amyloid patterns are inherited or are random conversions, we subcultured and isolated single colonies from heterogeneous pools of cells. […] We obtained four phenotypes shown in FIG. 16a, including long and short fibers, puncta, and diffuse nuclear staining, and these phenotypes were stably propagated (FIG. 16e). We termed these p53 phenotypes of the isolated strains as follows: p53 [L] (Long fibers), p53 [S] (Short fibers), p53 [P] (Puncta) and p53-NVA (No Visible Aggregates).
Additionally, we treated 293T cells with an Aβ amyloid disassembling agent, baicalein, following immunofluorescence staining with anti-p53 antibodies.

four p53 strains = assay: Cell viability of the four p53 strains under stress (MTT assay)
Source text: Our clonally expanded system provided an excellent cellular model to precisely investigate the oncogenicity of strain-specific p53 amyloid conformations in vivo. We analyzed cell growth of the four p53 amyloid strains by examining cell cycle flow and counting doubling time (FIGS. 17a and 17b). […] In contrast to the toxic amyloids observed in neurodegenerative contexts, p53 amyloids appear to promote cell growth. Additionally, to assess the stress response, the four cell strains were challenged with spermidine and H2O2 (FIGS. 17c and 17d). Cell viability was impaired under all stress conditions. […] To further identify key pathophysiology pathways involved in tumorigenesis of p53 aggregates' gain-of-function, we performed a serial screen by western blotting and compared the expression of cancer-related proteins in the four strains. […] Additionally, a group of epigenetic regulators altered their expression in present of p53 aggregates. […] Together with the horizontal transmissibility shown in FIG. 16, the three endogenous p53 aggregates were able to switch into malignant cancer cells including activating EMT, increasing cancer stemness, and dramatically altering epigenetic regulators, and the strain-specific p53 amyloids can propagate oncogenic inheritance via a protein-based mechanism.

O=C(O[C@@H]1Cc2c(O)cc(O)cc2O[C@@H]1c1cc(O)c(O)c(O)c1)c1cc(O)c(O)c(O)c1 [EGCG]
correction of TDP-43 dysfunction on mRNA processing [1]: insufficient to correct TDP-43 dysfunction on mRNA processing | TDP-43-IIPLD aggregates, statistical analysis of dose dependence [2]: disassembled the formed TDP-43 misfolded aggregates in a dose-dependent manner | assembly of TDP-43-IIPLD proteinaceous nucleating particles ([2]; 50 μM): reduce TDP-43 proteinaceous nucleating particles | TDP-43 species (TDP-43 polymers): increased the level of the 130 kD TDP-43 instead of the high-order TDP-43 polymers

OO [H2O2]
p53 aggregate formation ([3]; H2O2 treatment): induced p53 aggregate formation | cell viability (four p53 strains; four p53 strains challenged with H2O2): impaired

CC(C)C[C@@H](C=O)NC(=O)[C@H](CC(C)C)NC(=O)[C@H](CC(C)C)NC(=O)OCc1ccccc1 [MG132] (Cbz-Leu-Leu-Leu-aldehyde)
form of p53 fibers ([3]; 293T cells, MG132): converted the three types of p53 fibers into irregular inclusions | p53 aggregates ([3]; 293T cells, MG132): significantly increased p53 aggregates

NCCCCNCCCN [spermidine]
cell viability (four p53 strains; four p53 strains challenged with spermidine): impaired
